In patent publication US8247211B2, “Glycopeptide antibiotics” (American Cyanamid Company, priority 2001, dated 2012):
Values after ≈ are worked out from the molar mass of the structure shown.

Assays:
Assay in all cases: In vitro antibacterial evaluation: minimum inhibitory concentration (MIC), broth dilution method
Format in all cases: cell-based
Settings in all cases: 18 hours at 35° C.
Enterococcus sp. = system: Enterococcus sp.
How it was run: (§1)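 Test strains, among them recent clinical isolates carrying methicillin, penicillin and/or vancomycin resistance, were inoculated at 5×10^5 CFU/mL. A broth dilution series spanning 64-0.06 μg/mL in Muller-Hinton II […] (NCCLS M7-A2) defined the MIC as the lowest growth-inhibiting concentration.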

Escherichia coli = system: Escherichia coli
How it was run: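 Broth dilution per NCCLS M7-A2 in Muller-Hinton II […], inoculum 5×10^5 CFU/mL, antibiotic tested over 64-0.06 μg/mL. MIC is taken as the lowest concentration that inhibits growth. Panel includes recent clinical isolates resistant to methicillin, penicillin and/or vancomycin.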

Staphylococcus sp. = system: Staphylococcus sp.
How it was run: as §1

Streptococcus sp. = system: Streptococcus sp.
How it was run: as §1

[1] = Enterococcus faecalis (ATCC 29212)
[2] = Enterococcus faecalis (GC 2242)
[3] = Enterococcus faecalis (GC 2691)
[4] = Enterococcus faecalis (GC 3059)
[5] = Enterococcus faecalis (GC 4552)
[6] = Enterococcus faecalis (GC 4553)
[7] = Enterococcus faecalis (GC 4554)
[8] = Enterococcus faecalis (GC 6189)
[9] = broth dilution, inoculum 5×10^5 CFU/mL
[10] = Streptococcus agalactiae (GC 4564)
[11] = Streptococcus pneumoniae (ATCC 6301)
[12] = Streptococcus pneumoniae (GC 1894)
[13] = Streptococcus pneumoniae (GC 4565)
[14] = Streptococcus pyogenes (GC 4563)

## CC(c1ccccc1)C1NC(=O)CNC(=O)C(CO)NC(=O)C(C(O)C2CNC(=N)N2C2OC(CO)C(O)C(O)C2O)NC(=O)C(C(O)C2CNC(=N)N2)NC(=O)C(Cc2ccc(OC3OC(CO)C(OC4OC(CO)C(O)C(OCc5ccc(OCc6ccccc6)cc5)C4O)C(O)C3O)cc2)NC1=O (stereo not drawn) [Example 231c]
Enterococcus sp.; Enterococcus avium (GC 4558)
  MIC Enterococcus avium (GC 4558): 4 µg/mL (≈ 2.68 µM)
Enterococcus sp.; [1]
  MIC Enterococcus faecalis (ATCC 29212): 4 µg/mL (≈ 2.68 µM)
Enterococcus sp.; [2]
  MIC Enterococcus faecalis (GC 2242): 4 µg/mL (≈ 2.68 µM)
Enterococcus sp.; [3]
  MIC Enterococcus faecalis (GC 2691): 8 µg/mL (≈ 5.36 µM)
Enterococcus sp.; [4]
  MIC Enterococcus faecalis (GC 3059): 4 µg/mL (≈ 2.68 µM)
Enterococcus sp.; [5]
  MIC Enterococcus faecalis (GC 4552): 4 µg/mL (≈ 2.68 µM)
Enterococcus sp.; [6]
  MIC Enterococcus faecalis (GC 4553): 4 µg/mL (≈ 2.68 µM)
Enterococcus sp.; [7]
  MIC Enterococcus faecalis (GC 4554): 4 µg/mL (≈ 2.68 µM)
Enterococcus sp.; [8]
  MIC Enterococcus faecalis (GC 6189): 4 µg/mL (≈ 2.68 µM)
Enterococcus sp.; Enterococcus faecium (GC 2243)
  MIC Enterococcus faecium (GC 2243): 4 µg/mL (≈ 2.68 µM)
Enterococcus sp.; Enterococcus faecium (GC 4556)
  MIC Enterococcus faecium (GC 4556): 4 µg/mL (≈ 2.68 µM)
Enterococcus sp.; Enterococcus faecium (GC 4557)
  MIC Enterococcus faecium (GC 4557): 4 µg/mL (≈ 2.68 µM)
Enterococcus sp.; [9]
  MIC Enterococcus avium (GC 4558): 4 µg/mL (≈ 2.68 µM)
  MIC Enterococcus faecalis (ATCC 29212): 4 µg/mL (≈ 2.68 µM)
  MIC Enterococcus faecalis (GC 2242): 4 µg/mL (≈ 2.68 µM)
  MIC Enterococcus faecalis (GC 2691): 8 µg/mL (≈ 5.36 µM)
  MIC Enterococcus faecalis (GC 3059): 4 µg/mL (≈ 2.68 µM)
  MIC Enterococcus faecalis (GC 4552): 4 µg/mL (≈ 2.68 µM)
  MIC Enterococcus faecalis (GC 4553): 4 µg/mL (≈ 2.68 µM)
  MIC Enterococcus faecalis (GC 4554): 4 µg/mL (≈ 2.68 µM)
  MIC Enterococcus faecalis (GC 6189): 4 µg/mL (≈ 2.68 µM)
  MIC Enterococcus faecium (GC 2243): 4 µg/mL (≈ 2.68 µM)
  MIC Enterococcus faecium (GC 4556): 4 µg/mL (≈ 2.68 µM)
  MIC Enterococcus faecium (GC 4557): 4 µg/mL (≈ 2.68 µM)
Escherichia coli
  MIC Escherichia coli (GC 4560): 2 µg/mL (≈ 1.34 µM)
Staphylococcus sp.
  MIC Coagulase Negative Staphylococcus (GC 4547): 2 µg/mL (≈ 1.34 µM)
  MIC Coagulase Negative Staphylococcus (GC 4548): 0.5 µg/mL (≈ 0.335 µM)
  MIC Coagulase Negative Staphylococcus (GC 4549): 0.5 µg/mL (≈ 0.335 µM)
  MIC Coagulase Negative Staphylococcus (GC 4551): 1 µg/mL (≈ 0.67 µM)
  MIC Coagulase Negative Staphylococcus (GC 6257): 0.5 µg/mL (≈ 0.335 µM)
  MIC Staphylococcus aureus (ATCC 29213): 1 µg/mL (≈ 0.67 µM)
  MIC Staphylococcus aureus (GC 1131): 2 µg/mL (≈ 1.34 µM)
  MIC Staphylococcus aureus (GC 3051): 2 µg/mL (≈ 1.34 µM)
  MIC Staphylococcus aureus (GC 3053): 2 µg/mL (≈ 1.34 µM)
  MIC Staphylococcus aureus (GC 4541): 2 µg/mL (≈ 1.34 µM)
  MIC Staphylococcus aureus (GC 4542): 2 µg/mL (≈ 1.34 µM)
  MIC Staphylococcus aureus (GC 4544): 2 µg/mL (≈ 1.34 µM)
  MIC Staphylococcus aureus (GC 4545): 2 µg/mL (≈ 1.34 µM)
  MIC Staphylococcus aureus-SMITH (GC 4543): 1 µg/mL (≈ 0.67 µM)
  MIC Staphylococcus haemolyticus (GC 4546): 1 µg/mL (≈ 0.67 µM)
Streptococcus sp.; [10]
  MIC Streptococcus agalactiae (GC 4564): <0.12 µg/mL
Streptococcus sp.; [11]
  MIC Streptococcus pneumoniae (ATCC 6301): <0.12 µg/mL
Streptococcus sp.; [12]
  MIC Streptococcus pneumoniae (GC 1894): <0.12 µg/mL
Streptococcus sp.; [13]
  MIC Streptococcus pneumoniae (GC 4565): <0.12 µg/mL
Streptococcus sp.; [14]
  MIC Streptococcus pyogenes (GC 4563): <0.12 µg/mL
Streptococcus sp.; [9]
  MIC Streptococcus agalactiae (GC 4564): <0.12 µg/mL
  MIC Streptococcus pneumoniae (ATCC 6301): <0.12 µg/mL
  MIC Streptococcus pneumoniae (GC 1894): <0.12 µg/mL
  MIC Streptococcus pneumoniae (GC 4565): <0.12 µg/mL
  MIC Streptococcus pyogenes (GC 4563): <0.12 µg/mL

## COc1ccc(COCC2OC(OC3C(CO)OC(Oc4ccc(CC5NC(=O)C(C(C)c6ccccc6)NC(=O)CNC(=O)C(CO)NC(=O)C(C(O)C6CNC(=N)N6C6OC(CO)C(O)C(O)C6O)NC(=O)C(C(O)C6CNC(=N)N6)NC5=O)cc4)C(O)C3O)C(O)C(O)C2O)cc1 (stereo not drawn) [Example 232, Cyclo[glycyl-β-methylphenylalanyl-O-[4-O-[6-O-(4-methoxybenzyl)hexopyranosyl]hexopyranosyl]tyrosyl-3-(2-iminoimidazolidin-4-yl)seryl-3-(3-hexopyranosyl-2-iminoimidazolidin-4-yl)serylseryl]]
Enterococcus sp.; Enterococcus avium (GC 4558)
  MIC Enterococcus avium (GC 4558): 32 µg/mL (≈ 22.6 µM)
Enterococcus sp.; [1]
  MIC Enterococcus faecalis (ATCC 29212): 32 µg/mL (≈ 22.6 µM)
Enterococcus sp.; [2]
  MIC Enterococcus faecalis (GC 2242): 16 µg/mL (≈ 11.3 µM)
Enterococcus sp.; [3]
  MIC Enterococcus faecalis (GC 2691): 32 µg/mL (≈ 22.6 µM)
Enterococcus sp.; [4]
  MIC Enterococcus faecalis (GC 3059): 32 µg/mL (≈ 22.6 µM)
Enterococcus sp.; [5]
  MIC Enterococcus faecalis (GC 4552): 32 µg/mL (≈ 22.6 µM)
Enterococcus sp.; [6]
  MIC Enterococcus faecalis (GC 4553): 32 µg/mL (≈ 22.6 µM)
Enterococcus sp.; [7]
  MIC Enterococcus faecalis (GC 4554): 32 µg/mL (≈ 22.6 µM)
Enterococcus sp.; [8]
  MIC Enterococcus faecalis (GC 6189): 64 µg/mL (≈ 45.2 µM)
Enterococcus sp.; Enterococcus faecium (GC 2243)
  MIC Enterococcus faecium (GC 2243): 16 µg/mL (≈ 11.3 µM)
Enterococcus sp.; Enterococcus faecium (GC 4556)
  MIC Enterococcus faecium (GC 4556): 32 µg/mL (≈ 22.6 µM)
Enterococcus sp.; Enterococcus faecium (GC 4557)
  MIC Enterococcus faecium (GC 4557): 4 µg/mL (≈ 2.83 µM)
Enterococcus sp.; [9]
  MIC Enterococcus avium (GC 4558): 32 µg/mL (≈ 22.6 µM)
  MIC Enterococcus faecalis (ATCC 29212): 32 µg/mL (≈ 22.6 µM)
  MIC Enterococcus faecalis (GC 2242): 16 µg/mL (≈ 11.3 µM)
  MIC Enterococcus faecalis (GC 2691): 32 µg/mL (≈ 22.6 µM)
  MIC Enterococcus faecalis (GC 3059): 32 µg/mL (≈ 22.6 µM)
  MIC Enterococcus faecalis (GC 4552): 32 µg/mL (≈ 22.6 µM)
  MIC Enterococcus faecalis (GC 4553): 32 µg/mL (≈ 22.6 µM)
  MIC Enterococcus faecalis (GC 4554): 32 µg/mL (≈ 22.6 µM)
  MIC Enterococcus faecalis (GC 6189): 64 µg/mL (≈ 45.2 µM)
  MIC Enterococcus faecium (GC 2243): 16 µg/mL (≈ 11.3 µM)
  MIC Enterococcus faecium (GC 4556): 32 µg/mL (≈ 22.6 µM)
  MIC Enterococcus faecium (GC 4557): 4 µg/mL (≈ 2.83 µM)
Escherichia coli; Escherichia coli (ATCC 25922)
  MIC Escherichia coli (ATCC 25922): >64 µg/mL
Escherichia coli; Escherichia coli (GC 4559)
  MIC Escherichia coli (GC 4559): 64 µg/mL (≈ 45.2 µM)
Escherichia coli
  MIC Escherichia coli (GC 4560): 2 µg/mL (≈ 1.41 µM)
Staphylococcus sp.
  MIC Coagulase Negative Staphylococcus (GC 4547): 2 µg/mL (≈ 1.41 µM)
  MIC Coagulase Negative Staphylococcus (GC 4548): 2 µg/mL (≈ 1.41 µM)
  MIC Coagulase Negative Staphylococcus (GC 4549): 1 µg/mL (≈ 0.707 µM)
  MIC Coagulase Negative Staphylococcus (GC 4551): 4 µg/mL (≈ 2.83 µM)
  MIC Coagulase Negative Staphylococcus (GC 6257): 2 µg/mL (≈ 1.41 µM)
  MIC Staphylococcus aureus (ATCC 29213): 4 µg/mL (≈ 2.83 µM)
  MIC Staphylococcus aureus (GC 1131): 4 µg/mL (≈ 2.83 µM)
  MIC Staphylococcus aureus (GC 3051): 4 µg/mL (≈ 2.83 µM)
  MIC Staphylococcus aureus (GC 3053): 8 µg/mL (≈ 5.65 µM)
  MIC Staphylococcus aureus (GC 4541): 4 µg/mL (≈ 2.83 µM)
  MIC Staphylococcus aureus (GC 4542): 4 µg/mL (≈ 2.83 µM)
  MIC Staphylococcus aureus (GC 4544): 4 µg/mL (≈ 2.83 µM)
  MIC Staphylococcus aureus (GC 4545): 4 µg/mL (≈ 2.83 µM)
  MIC Staphylococcus aureus-SMITH (GC 4543): 4 µg/mL (≈ 2.83 µM)
  MIC Staphylococcus haemolyticus (GC 4546): 2 µg/mL (≈ 1.41 µM)
Streptococcus sp.; [10]
  MIC Streptococcus agalactiae (GC 4564): 2 µg/mL (≈ 1.41 µM)
Streptococcus sp.; [11]
  MIC Streptococcus pneumoniae (ATCC 6301): 0.5 µg/mL (≈ 0.353 µM)
Streptococcus sp.; [12]
  MIC Streptococcus pneumoniae (GC 1894): 0.5 µg/mL (≈ 0.353 µM)
Streptococcus sp.; [13]
  MIC Streptococcus pneumoniae (GC 4565): 1 µg/mL (≈ 0.707 µM)
Streptococcus sp.; [14]
  MIC Streptococcus pyogenes (GC 4563): 2 µg/mL (≈ 1.41 µM)
Streptococcus sp.; [9]
  MIC Streptococcus agalactiae (GC 4564): 2 µg/mL (≈ 1.41 µM)
  MIC Streptococcus pneumoniae (ATCC 6301): 0.5 µg/mL (≈ 0.353 µM)
  MIC Streptococcus pneumoniae (GC 1894): 0.5 µg/mL (≈ 0.353 µM)
  MIC Streptococcus pneumoniae (GC 4565): 1 µg/mL (≈ 0.707 µM)
  MIC Streptococcus pyogenes (GC 4563): 2 µg/mL (≈ 1.41 µM)
